{
  "source": "patent EP0222670A1",
  "about": "“Dissolved composition of (benzo-1,2,4-thiadiazine)-1,1-dioxide” (SHISEIDO COMPANY LIMITED, priority 1985, dated 1987)",
  "assay": "solubilities of the dioxide in various solvents at room temperature",
  "format": "physicochemical",
  "design": "key: completely and transparently dissolved; x: partially not dissolved, with presence of crystals",
  "excerpt": "The solubilities of 7-chloro-3-methyl-2H[benzo-l,2,4-thiadiazine]-l,l-dioxide in various solvents at room temperature are shown in Table l.\n• *l: The dioxide is 7-chloro-3-methyl-2H-[benzo-l,2,4-thiadiazine]-l,l-dioxide • *2: Dipropylene glycol\nIn the Table, o: completely and transparently dissolved; x: partially not dissolved, with presence of crystals.",
  "data": [
    {"substance": "7-chloro-3-methyl-2H-[benzo-l,2,4-thiadiazine]-l,l-dioxide", "values": [
      {"measurement": "solubility of Dioxide in solvent", "setting": "solvent BA, Dioxide 0.2 % by weight", "value": "o"},
      {"measurement": "solubility of Dioxide in solvent", "setting": "solvent BA, Dioxide 1.0 % by weight", "value": "o"},
      {"measurement": "solubility of Dioxide in solvent", "setting": "solvent BA, Dioxide 2.0 % by weight", "value": "x"},
      {"measurement": "solubility of Dioxide in solvent", "setting": "solvent BA, Dioxide 3.0 % by weight", "value": "x"},
      {"measurement": "solubility of Dioxide in solvent", "setting": "solvent BA/IPA = 1/9, Dioxide 0.2 % by weight", "value": "o"},
      {"measurement": "solubility of Dioxide in solvent", "setting": "solvent BA/IPA = 1/9, Dioxide 1.0 % by weight", "value": "o"},
      {"measurement": "solubility of Dioxide in solvent", "setting": "solvent BA/IPA = 1/9, Dioxide 2.0 % by weight", "value": "x"},
      {"measurement": "solubility of Dioxide in solvent", "setting": "solvent BA/IPA = 1/9, Dioxide 3.0 % by weight", "value": "x"},
      {"measurement": "solubility of Dioxide in solvent", "setting": "solvent BA/IPA/aqueous alkali solution (pH = 10) = 1/3/6, Dioxide 0.2 % by weight", "value": "o"},
      {"measurement": "solubility of Dioxide in solvent", "setting": "solvent BA/IPA/aqueous alkali solution (pH = 10) = 1/3/6, Dioxide 1.0 % by weight", "value": "o"},
      {"measurement": "solubility of Dioxide in solvent", "setting": "solvent BA/IPA/aqueous alkali solution (pH = 10) = 1/3/6, Dioxide 2.0 % by weight", "value": "o"},
      {"measurement": "solubility of Dioxide in solvent", "setting": "solvent BA/IPA/aqueous alkali solution (pH = 10) = 1/3/6, Dioxide 3.0 % by weight", "value": "o"},
      {"measurement": "solubility of Dioxide in solvent", "setting": "solvent DMSO, Dioxide 0.2 % by weight", "value": "o"},
      {"measurement": "solubility of Dioxide in solvent", "setting": "solvent DMSO, Dioxide 1.0 % by weight", "value": "o"},
      {"measurement": "solubility of Dioxide in solvent", "setting": "solvent DMSO, Dioxide 2.0 % by weight", "value": "o"},
      {"measurement": "solubility of Dioxide in solvent", "setting": "solvent DMSO, Dioxide 3.0 % by weight", "value": "o"},
      {"measurement": "solubility of Dioxide in solvent", "setting": "solvent DPG (Dipropylene glycol), Dioxide 0.2 % by weight", "value": "x"},
      {"measurement": "solubility of Dioxide in solvent", "setting": "solvent DPG (Dipropylene glycol), Dioxide 1.0 % by weight", "value": "x"},
      {"measurement": "solubility of Dioxide in solvent", "setting": "solvent DPG (Dipropylene glycol), Dioxide 2.0 % by weight", "value": "x"},
      {"measurement": "solubility of Dioxide in solvent", "setting": "solvent DPG (Dipropylene glycol), Dioxide 3.0 % by weight", "value": "x"},
      {"measurement": "solubility of Dioxide in solvent", "setting": "solvent Ethyl alcohol, Dioxide 0.2 % by weight", "value": "x"},
      {"measurement": "solubility of Dioxide in solvent", "setting": "solvent Ethyl alcohol, Dioxide 1.0 % by weight", "value": "x"},
      {"measurement": "solubility of Dioxide in solvent", "setting": "solvent Ethyl alcohol, Dioxide 2.0 % by weight", "value": "x"},
      {"measurement": "solubility of Dioxide in solvent", "setting": "solvent Ethyl alcohol, Dioxide 3.0 % by weight", "value": "x"},
      {"measurement": "solubility of Dioxide in solvent", "setting": "solvent IPA, Dioxide 0.2 % by weight", "value": "o"},
      {"measurement": "solubility of Dioxide in solvent", "setting": "solvent IPA, Dioxide 1.0 % by weight", "value": "x"},
      {"measurement": "solubility of Dioxide in solvent", "setting": "solvent IPA, Dioxide 2.0 % by weight", "value": "x"},
      {"measurement": "solubility of Dioxide in solvent", "setting": "solvent IPA, Dioxide 3.0 % by weight", "value": "x"},
      {"measurement": "solubility of Dioxide in solvent", "setting": "solvent IPA/DPG = 1/1, Dioxide 0.2 % by weight", "value": "o"},
      {"measurement": "solubility of Dioxide in solvent", "setting": "solvent IPA/DPG = 1/1, Dioxide 1.0 % by weight", "value": "x"},
      {"measurement": "solubility of Dioxide in solvent", "setting": "solvent IPA/DPG = 1/1, Dioxide 2.0 % by weight", "value": "x"},
      {"measurement": "solubility of Dioxide in solvent", "setting": "solvent IPA/DPG = 1/1, Dioxide 3.0 % by weight", "value": "x"},
      {"measurement": "solubility of Dioxide in solvent", "setting": "solvent IPA/DPG/aqueous alkali solution (pH = 10) = 2/1/1, Dioxide 0.2 % by weight", "value": "o"},
      {"measurement": "solubility of Dioxide in solvent", "setting": "solvent IPA/DPG/aqueous alkali solution (pH = 10) = 2/1/1, Dioxide 1.0 % by weight", "value": "o"},
      {"measurement": "solubility of Dioxide in solvent", "setting": "solvent IPA/DPG/aqueous alkali solution (pH = 10) = 2/1/1, Dioxide 2.0 % by weight", "value": "o"},
      {"measurement": "solubility of Dioxide in solvent", "setting": "solvent IPA/DPG/aqueous alkali solution (pH = 10) = 2/1/1, Dioxide 3.0 % by weight", "value": "o"}
    ]}
  ]
}
